Measured values from patent US8058295B2, “Cystic fibrosis transmembrane conductance regulator protein inhibitors and uses thereof” (The Regents of the University of California, priority 2002, dated 2011).

test system: Caco-2 monolayers; experiment: not given; settings: literature values, Stenberg et al.; cited from earlier work

| Structure (SMILES) | permeability coefficient [×10⁻⁶ cm/s] |
| --- | --- |
| CC(C)NCC(O)COc1cccc2[nH]ccc12 (stereo not shown) [pindolol] | 36 |
| CCCc1nn(C)c2c(=O)[nH]c(-c3cc(S(=O)(=O)N4CCN(C)CC4)ccc3OCC)nc12 [sildenafil] | 48 |

target: T1, MDR-1 (Homo sapiens, UniProt P08183); experiment: MDR-1 activity, ^3H-vincristine accumulation in 9HTEo-/Dx cells; type: cell-based; settings: 100 μM
T1 construct: endogenous in cells; host or cells: 9HTEo-/Dx cells
T1 sequence (P08183 whole entry): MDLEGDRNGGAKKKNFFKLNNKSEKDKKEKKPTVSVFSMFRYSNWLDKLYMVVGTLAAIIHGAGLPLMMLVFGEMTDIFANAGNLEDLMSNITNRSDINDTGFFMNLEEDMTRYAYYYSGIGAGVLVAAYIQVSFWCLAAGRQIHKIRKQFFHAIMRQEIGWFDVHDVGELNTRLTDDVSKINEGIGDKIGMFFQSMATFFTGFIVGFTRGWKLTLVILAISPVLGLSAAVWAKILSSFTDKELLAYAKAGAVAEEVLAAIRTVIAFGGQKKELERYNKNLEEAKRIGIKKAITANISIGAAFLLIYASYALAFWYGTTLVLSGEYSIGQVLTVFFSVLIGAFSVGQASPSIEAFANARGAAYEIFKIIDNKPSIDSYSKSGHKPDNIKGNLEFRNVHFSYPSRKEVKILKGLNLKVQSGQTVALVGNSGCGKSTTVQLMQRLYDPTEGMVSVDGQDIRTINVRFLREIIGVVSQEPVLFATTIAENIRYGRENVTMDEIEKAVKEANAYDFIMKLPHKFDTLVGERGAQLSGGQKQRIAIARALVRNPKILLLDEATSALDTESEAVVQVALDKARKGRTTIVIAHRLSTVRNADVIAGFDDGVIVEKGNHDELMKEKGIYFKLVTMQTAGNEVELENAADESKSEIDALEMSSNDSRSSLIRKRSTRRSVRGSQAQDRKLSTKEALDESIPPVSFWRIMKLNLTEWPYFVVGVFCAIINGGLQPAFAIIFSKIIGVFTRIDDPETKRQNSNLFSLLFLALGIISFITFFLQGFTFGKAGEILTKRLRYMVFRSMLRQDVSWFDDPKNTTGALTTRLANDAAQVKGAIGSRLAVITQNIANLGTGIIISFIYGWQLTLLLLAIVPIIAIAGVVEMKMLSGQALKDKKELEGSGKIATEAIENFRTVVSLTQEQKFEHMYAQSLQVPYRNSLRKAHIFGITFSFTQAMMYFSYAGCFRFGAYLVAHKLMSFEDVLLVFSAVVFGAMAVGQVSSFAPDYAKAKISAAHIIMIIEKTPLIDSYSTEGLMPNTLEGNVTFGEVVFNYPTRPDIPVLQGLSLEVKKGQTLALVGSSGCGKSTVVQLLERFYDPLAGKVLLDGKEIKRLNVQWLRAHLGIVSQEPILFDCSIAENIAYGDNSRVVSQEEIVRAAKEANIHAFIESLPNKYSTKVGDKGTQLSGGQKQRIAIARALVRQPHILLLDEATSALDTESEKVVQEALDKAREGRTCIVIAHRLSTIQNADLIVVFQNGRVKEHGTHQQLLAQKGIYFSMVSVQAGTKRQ

| Structure (SMILES) | vincristine accumulation |
| --- | --- |
| COc1ccc(CCN(C)CCCC(C#N)(c2ccc(OC)c(OC)c2)C(C)C)cc1OC (stereo not shown) [verapamil, reference compound] | strongly increased |

target: wildtype CFTR (Homo sapiens, UniProt P13569); experiment: YFP fluorescence assay of CFTR-mediated I^− transport in FRT cells; type: cell-based; design: expressed in transfected cells; host or cells: Fischer rat thyroid (FRT) cells; settings: relative to CFTRinh-172 = 1.0
Experimental: FIG. 1A is a schematic representation of a screening technique used for detection of CFTR inhibitors. CFTR was maximally stimulated by multiple agonists in stably transfected epithelial cells co-expressing human CFTR and a yellow fluorescent protein (YFP) having Cl^−/I^− sensitive fluorescence. After addition of a test compound, I^− influx was induced by adding an I^− containing solution.
Cells were plated in 96-well black-walled microplates (Corning Costar) at a density of 20,000 cells per well in Coon's modified F12 medium supplemented with 5% fetal calf serum, 2 mM L-glutamine, 100 U/mL penicillin, and 100 μg/mL streptomycin. Assays were done at 48 hours after plating at which time cells were just confluent (˜40,000 cells per well).
Assays were done using a customized screening system (Beckman) consisting of a 3-meter robotic arm, CO2 incubator, plate washer, liquid handling workstation, bar code reader, delidding station, and two FluoStar fluorescence plate readers (BMG Labtechnologies, Offenburg, Germany), each equipped with two syringe pumps and HQ500/20X (500±10 nm) excitation and HQ535/30M (535±15 nm) emission filters (Chroma). The robotic system was integrated using SAMI version 3.3 software (Beckman) modified for two plate readers. Custom software was written in VBA (Visual Basic for Applications) to compute baseline-subtracted, normalized fluorescence slopes (giving halide influx rates) from stored data files.
The assay was set-up by loading the incubator (37° C., 90% humidity, 5% CO2) with 40-60 96-well plates containing the FRT cells, and loading a carousel with 96-well plates containing test compounds and disposable plastic pipette tips. To initiate the assay, each well of a 96-well plate was washed 3 times in PBS (300 μL/wash), leaving 50 μL PBS. Ten μL of a CFTR-activating cocktail (5 μM forskolin, 100 μM IBMX, 25 μM apigenin in PBS) was added, and after 5 min one test compound (0.5 μL of 1 mM DMSO solution) was added to each well to give 10 μM final concentration. After 10 min, 96-well plates were transferred to a plate reader for fluorescence assay. Each well was assayed individually for CFTR-mediated I^− transport by recording fluorescence continuously (200 ms per point) for 2 s (baseline) and then for 12 s after rapid (<0.5 s) addition of 160 μL of isosmolar PBS in which 137 mM Cl^− was replaced by I^−.
The primary screening technique used to identify the compounds of the invention was designed to identify inhibitors of CFTR Cl^− conductance by direct CFTR-inhibitor interaction. CFTR was pre-stimulated in CFTR-expressing FRT cells by an activating cocktail containing forskolin, IBMX and apigenin, as shown schematically in FIG. 1A. The activation of CFTR by multiple mechanisms (cAMP elevation, phosphodiesterase inhibition, and direct CFTR binding) allowed identification of inhibitors that blocked the CFTR Cl^− transporting pathway directly rather than more proximal step(s) in a signaling pathway. The FRT cells co-expressed a yellow fluorescent protein-based Cl^−/I^− sensor that provided a quantitative fluorescence read-out of inhibition potency (See, e.g., Jayaraman et al., 2000, J. Biol. Chem. 275:6047-6050; Galietta et al., 2001, Am. J. Physiol. 281:C1734-C1742.). After CFTR pre-stimulation and compound addition, cells were subjected to an inwardly-directed I^− gradient to drive I^− influx and produce decreasing fluorescence. Each assay consisted of recording baseline fluorescence for 2 seconds, followed by 12 seconds of continuous recording of fluorescence after rapid addition of the I^− containing solution. Compounds were tested separately at 10 μM concentration in a 96-well format utilizing a fully-automated high-throughput screening apparatus (see Example 2 below).

wildtype CFTR, sequence (P13569 whole entry): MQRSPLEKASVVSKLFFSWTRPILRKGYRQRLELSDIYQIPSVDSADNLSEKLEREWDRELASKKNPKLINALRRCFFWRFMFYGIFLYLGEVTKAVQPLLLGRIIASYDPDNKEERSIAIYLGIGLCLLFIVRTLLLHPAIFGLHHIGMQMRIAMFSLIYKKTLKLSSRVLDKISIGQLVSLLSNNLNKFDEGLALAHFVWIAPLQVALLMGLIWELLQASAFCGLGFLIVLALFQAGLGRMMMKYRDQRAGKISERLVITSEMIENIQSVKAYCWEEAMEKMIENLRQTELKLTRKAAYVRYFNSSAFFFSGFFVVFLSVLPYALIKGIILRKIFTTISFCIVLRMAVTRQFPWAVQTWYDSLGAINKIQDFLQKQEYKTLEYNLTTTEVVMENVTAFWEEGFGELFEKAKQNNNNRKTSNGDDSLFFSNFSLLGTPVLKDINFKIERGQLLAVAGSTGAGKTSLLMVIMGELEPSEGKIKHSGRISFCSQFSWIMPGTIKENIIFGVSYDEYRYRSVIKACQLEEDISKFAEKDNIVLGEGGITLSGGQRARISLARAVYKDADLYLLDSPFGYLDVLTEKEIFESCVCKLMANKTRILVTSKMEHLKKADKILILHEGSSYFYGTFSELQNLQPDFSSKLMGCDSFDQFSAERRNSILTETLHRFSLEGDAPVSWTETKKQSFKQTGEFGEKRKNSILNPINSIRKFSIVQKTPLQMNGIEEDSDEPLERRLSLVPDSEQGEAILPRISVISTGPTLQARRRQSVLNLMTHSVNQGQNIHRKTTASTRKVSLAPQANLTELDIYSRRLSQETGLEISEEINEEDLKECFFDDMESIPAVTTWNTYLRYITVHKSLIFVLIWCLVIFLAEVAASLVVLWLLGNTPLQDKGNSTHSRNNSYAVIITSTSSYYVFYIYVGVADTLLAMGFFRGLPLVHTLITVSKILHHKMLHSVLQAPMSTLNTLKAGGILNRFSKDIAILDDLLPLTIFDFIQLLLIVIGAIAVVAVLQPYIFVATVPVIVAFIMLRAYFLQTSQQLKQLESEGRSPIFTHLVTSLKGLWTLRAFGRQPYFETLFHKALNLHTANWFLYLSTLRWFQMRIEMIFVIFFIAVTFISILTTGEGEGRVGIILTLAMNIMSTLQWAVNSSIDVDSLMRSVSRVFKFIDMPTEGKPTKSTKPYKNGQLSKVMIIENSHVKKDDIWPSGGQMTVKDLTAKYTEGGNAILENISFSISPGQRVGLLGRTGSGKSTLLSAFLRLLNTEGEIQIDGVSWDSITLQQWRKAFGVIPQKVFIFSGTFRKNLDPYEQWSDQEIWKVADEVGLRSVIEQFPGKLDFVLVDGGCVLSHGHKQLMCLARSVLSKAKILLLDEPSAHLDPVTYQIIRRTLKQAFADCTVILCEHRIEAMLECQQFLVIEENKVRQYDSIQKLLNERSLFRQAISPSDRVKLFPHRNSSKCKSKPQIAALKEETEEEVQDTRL

| relative potency (CFTR inhibition) | Structure (SMILES) |
| --- | --- |
| 0.70 | O=C(O)c1ccccc1C=C1SC(=S)N(c2ccccc2C(F)(F)F)C1=O [2, 3, 3-[(a-trifluoromethyl)phenyl]-5-[(b-carboxyphenyl)methylene]-2-thioxo-4-thiazolidinone] |
| 0.66 | O=C(O)c1ccccc1C=C1SC(=S)N(c2ccccc2C(F)(F)F)C1=O [2, 4, 3-[(a-trifluoromethyl)phenyl]-5-[(b-carboxyphenyl)methylene]-2-thioxo-4-thiazolidinone] |
| 0.74 | O=C(O)c1ccccc1C=C1SC(=S)N(c2ccccc2C(F)(F)F)C1=O [3, 2, 3-[(a-trifluoromethyl)phenyl]-5-[(b-carboxyphenyl)methylene]-2-thioxo-4-thiazolidinone] |
| 0.90 | O=C(O)c1ccccc1C=C1SC(=S)N(c2ccccc2C(F)(F)F)C1=O [3, 3, 3-[(a-trifluoromethyl)phenyl]-5-[(b-carboxyphenyl)methylene]-2-thioxo-4-thiazolidinone] |
| 0.67 | O=C(O)c1ccccc1C=C1SC(=S)N(c2ccccc2C(F)(F)F)C1=O [4, 2, 3-[(a-trifluoromethyl)phenyl]-5-[(b-carboxyphenyl)methylene]-2-thioxo-4-thiazolidinone] |
| 0.64 | O=C(O)c1ccccc1C=C1SC(=S)N(c2ccccc2C(F)(F)F)C1=O [4, 3, 3-[(a-trifluoromethyl)phenyl]-5-[(b-carboxyphenyl)methylene]-2-thioxo-4-thiazolidinone] |
| 0.56 | O=C(O)c1ccccc1C=C1SC(=S)N(c2ccccc2C(F)(F)F)C1=O [4, 4, 3-[(a-trifluoromethyl)phenyl]-5-[(b-carboxyphenyl)methylene]-2-thioxo-4-thiazolidinone] |
| 0.2 | O=C1/C(=C/c2ccc([N+](=O)[O-])cc2)SC(=S)N1c1cccc(C(F)(F)F)c1 [CFTRinh-020, 3-[(3-trifluoromethyl)phenyl]-5-[(4-nitrophenyl)methylene]-2-thioxo-4-thiazolidinone] |
| 0.3 | O=C(O)Oc1ccc(/C=C2\SC(=S)N(c3cccc(C(F)(F)F)c3)C2=O)cc1 [CFTRinh-029, 3-[(3-trifluoromethyl)phenyl]-5-[(4-oxycarboxyphenyl)methylene]-2-thioxo-4-thiazolidinone] |
| 0.2 | O=C1/C(=C/c2ccc(O)c(O)c2)SC(=S)N1c1cccc(C(F)(F)F)c1 [CFTRinh-185, 3-[(3-trifluoromethyl)phenyl]-5-[(3,4-dihydroxyphenyl)methylene]-2-thioxo-4-thiazolidinone] |
| 0.1 | O=C1/C(=C/c2cc(Br)c(O)c(Br)c2)SC(=S)N1c1cccc(C(F)(F)F)c1 [CFTRinh-214, 3-[(3-trifluoromethyl)phenyl]-5-[(3,5-dibromo-4-hydroxyphenyl)methylene]-2-thioxo-4-thiazolidinone] |
| 0.1 | O=C1/C(=C/c2cc(Br)c(O)c([N+](=O)[O-])c2)SC(=S)N1c1cccc(C(F)(F)F)c1 [CFTRinh-236, 3-[(3-trifluoromethyl)phenyl]-5-[(3-bromo-4-hydroxy-5-nitrophenyl)methylene]-2-thioxo-4-thiazolidinone] |
| 0.69 | O=C(O)c1ccccc1C=C1SC(=S)N(c2ccccc2C(F)(F)F)C1=O [a=2, b=2, 3-[(a-trifluoromethyl)phenyl]-5-[(b-carboxyphenyl)methylene]-2-thioxo-4-thiazolidinone] |
